# Source: patent publication US20240358015A1, “HERBICIDAL COMPOSITIONS” (Agrematch Ltd., priority 2021, published 2024)
# Columns and labels:
# [1] = tested on: S. alba; assay: Growth-chamber post-emergence assay on various weed species (Example 7); format: in vivo; conditions: 500 g/ha; 0.8% MIPA, 0.25% Genapol, 1% AGNIQUE, 0.05% Ca-LAS, 0.02% BSU, 0.05% Break-Thru
# Procedure: (§1) Herbicidal activity of Compound 1 was determined by post-emergence application on various weed species. 8-14 day old plants (weeds) were grown at 16 hours/8 hours day/night cycles at 30° C./25° C., respectively. Leaf stage was typically 2-6.
# (§2) In each treatment, 3 pots (either 7×7 or 8×12 cm), containing about 3-6 plants each, were sprayed using a VL-SET Paasche Airbrush with a 1-1.5 ml-solution containing 0.5-1.5 mg/ml of the tested compound, which is equivalent to about 500-1500 g/ha.
# (§3) Damage assessment: Herbicidal activity was assessed and scored 3-4 days after application by visual inspection of the plants in comparison to plants treated with the formulation alone (with no active ingredient) as control. Activity score is in the range of 0 to 100, where 0 represents no herbicidal activity like control plants and 100 represents the maximal herbicidal activity (i.e., total death of the plant).
# [2] = tested on: D. ferox; assay: as above; format: in vivo; conditions: 1500 g/ha; 0.8% MIPA, 0.25% Genapol, 2% HASTEN, 0.05% Break-Thru
# Procedure: as §1, §2, §3
# [3] = tested on: A. palmeri; assay: as above; format: in vivo, Amaranthus palmeri; conditions: 0.05% Break-Thru, 3-4 days after application
# Procedure: as §1, §2, §3
# [4] = tested on: Amaranthus palmeri; assay: Growth-chamber post-emergence assay, low application rates (Example 5); format: in vivo
# Procedure: (§4) Herbicidal activity of Compound 1 was determined by post-emergence application on 8-day old plants (weeds) of the Amaranthus palmeri and Setaria viridis species that were grown at 16 hours/8 hours day/night cycles at 30° C./25° C., respectively. Leaf stage was typically 4-6 for A. palmeri and 3-4 for S. viridis.
# (§5) In each treatment, between 1 to 3 pots (8×12 cm), containing about 6 Amaranthus palmeri or Setaria viridis plants, were sprayed using a VL-SET Paasche Airbrush with a 1 ml-solution containing 0.1-0.375 mg/ml of the tested compound, which is equivalent to about 100-375 g/ha.
# as §3
# [5] = tested on: Setaria viridis; assay: as above; format: in vivo
# Procedure: as §4, §5, §3
# [6] = tested on: E. colonum; assay: Growth-chamber post-emergence assay on various weed species (Example 7); format: in vivo, Echinochloa colonum; conditions: 1500 g/ha; 0.8% MIPA, 0.25% Genapol, 2% HASTEN, 0.05% Break-Thru
# Procedure: as §1, §2, §3
# [7] = tested on: Lolium multiflorum; assay: Growth-chamber post-emergence assay on additional weeds (Example 2); format: in vivo; conditions: 1000 g/ha; 13-day old plants; 3 days after application; scale 0-100
# Procedure: (§6) Herbicidal activity of Compound 1 was determined by post-emergence application on 13-day old Echinochloa colonum, Lolium multiflorum and Solanum nigrum.
# (§7) In each treatment, 3 pots, each containing about 5 plants, were sprayed using the same conditions as described above which are equivalent to 1000 g/ha. Herbicidal activity was assessed and scored 3 days after application by visual inspection of the weeds. Activity score is in the range of 0 to 100, where 0 represents no herbicidal activity like control plants and 100 represents the maximal herbicidal activity (i.e., total death of the plant). The obtained data is presented in Table 6 below per the activity score as described herein.
# [8] = tested on: Echinochloa colonum; assay: as above; format: in vivo; conditions: 1000 g/ha; 13-day old plants; 3 days after application; scale 0-100
# Procedure: as §6, §7
# [9] = tested on: Solanum nigrum; assay: as above; format: in vivo; conditions: 1000 g/ha; 13-day old plants; 3 days after application; scale 0-100
# Procedure: as §6, §7
# [10] = tested on: Z. mays; assay: Greenhouse post-emergence assay (Example 3); format: in vivo, Zea mays; conditions: 4% TWEEN 20, 0.05 M Tris buffer pH 8, 0.05% Break-Thru
# Procedure: Plant seeds were sowed in 9 cm×9 cm×10 cm flowerpots. Timing of sowing (days before treatment application) for each plant is detailed in Table 7 below. 5 flowerpots of each species were used for each treatment. Seeds were sowed in wet clay soil and then covered with about 1 cm layer of dry clay soil.
# Irrigation: Irrigation was carried out using VIBRONET-UD (NETAFIM) sprinklers hanging upside down one meter above the flowerpots. Water flow capacity-50 liters per hour. Irrigation was carried out three times a day for 10 minutes.
# Treatments: Table 8 presents generally the protocols of the various treatments used in these assays.
# (§8) 57.6 ml of 0.05 M Tris buffer pH=8 were added to 150 mg of Compound 1 and the mixture was stirred using a magnetic stirrer. 2.4 ml of TWEEN®20 were added and the mixture was stirred using a magnetic stirrer to obtain a 4% TWEEN®20-containing solution. 30 μl of Break-Thru were added to obtain a 0.05% Break-Thru-containing solution.
# as §8, with “225” for “150”
# Plants were sprayed using a DeVreis Generation 4 Research Track Sprayer with a TEE JET nozzle 80015EVS. Spraying volume was 200 L/ha using the following sprayer parameters: • Spray speed-2 KMH • Spray length-1.50 m • Spray pressure-42 PSI
# Each plant was sprayed twice, yielding a total spraying volume of 400 L/ha. Nozzle was located 55 cm above pots ground level.
# A. palmeri, S. viridis and S. nigrum plants were elevated with 8 cm tray, Z. mays plants were elevated with 3 cm tray in order to achieve a similar spraying height for all plant's foliage.
# Plants were scored by visual inspection of symptoms, on a scale of 0-100, where 0 represents no herbicidal activity like control plants and 100 represents the maximal herbicidal activity (i.e., total death of the plant). Each pot was scored separately. DAT=days after treatment
# [11] = 125 g/ha, 0.8% MIPA, 0.25% Genapol, 2% DASH EC
# [12] = 125 g/ha, 0.8% MIPA, 2% DASH EC
# [13] = 150 g/ha, 0.8% MIPA, 0.25% Genapol, 1% AGNIQUE, 0.05% Ca-LAS, 0.02% BSU
# [14] = 150 g/ha, 0.8% MIPA, 0.25% Genapol, 2% HASTEN
# [15] = 200 g/ha, 0.21% MIPA, 0.25% Genapol, 1% AGNIQUE, 0.05% Ca-LAS, 0.02% BSU
# [16] = 200 g/ha, 0.8% MIPA, 0.25% Genapol, 1% AGNIQUE, 0.05% Ca-LAS, 0.02% BSU
# [17] = 375 g/ha, 0.8% MIPA, 0.25% Genapol, 1% AGNIQUE, 0.05% Ca-LAS, 0.02% BSU
# [18] = 375 g/ha, 0.8% MIPA, 2% TWEEN20, 1% AGNIQUE, 0.05% Ca-LAS, 0.02% BSU, 0.05% Break-Thru, 3-4 days after application, scale 0-100
structure (smiles),measurement,setting,value
"O=C(O)c1cc(O)c2c(c1)C(=O)c1cccc(O)c1C2=O [Compound 1, Rhein]",Herbicidal activity score,[1],80
same,Herbicidal activity score,[2],95
same,Herbicidal activity score,"[3]; 500 g/ha, 0.8% MIPA, 0.25% Genapol, 1% AGNIQUE, 0.05% Ca-LAS, 0.02% BSU, scale 0-100",100
same,Herbicidal activity score,"[3]; 750 g/ha, 0.2% MIPA, 2% TWEEN20, 1% AGNIQUE, 0.05% Ca-LAS, 0.02% BSU",100
same,Herbicidal activity score,"[3]; 1500 g/ha, 0.8% MIPA, 0.25% Genapol, 2% HASTEN",100
same,Herbicidal activity score,"[4]; 100 g/ha, 0.8% MIPA, 0.25% Genapol, 2% DASH EC",90
same,Herbicidal activity score,[4]; [11],93
same,Herbicidal activity score,[4]; [12],65
same,Herbicidal activity score,[4]; [13],85
same,Herbicidal activity score,[4]; [14],85
same,Herbicidal activity score,[4]; [15],93
same,Herbicidal activity score,[4]; [16],98
same,Herbicidal activity score,"[4]; 250 g/ha, 0.02% MIPA, 2% TWEEN20, 2% AGNIQUE, 0.1% Ca-LAS, 0.04% BSU, 0.05% Break-Thru",90
same,Herbicidal activity score,[4]; [17],97
same,Herbicidal activity score,[4]; [18],100
same,Herbicidal activity score,[5]; [11],23
same,Herbicidal activity score,[5]; [12],43
same,Herbicidal activity score,[5]; [13],70
same,Herbicidal activity score,[5]; [14],65
same,Herbicidal activity score,[5]; [15],65
same,Herbicidal activity score,[5]; [16],88
same,Herbicidal activity score,[5]; [17],78
same,Herbicidal activity score,[5]; [18],75
same,Herbicidal activity score,[6],90
same,Activity Score,[7],50
same,Activity Score,[8],70
same,Activity Score,[9],60
same,"Score by visual inspection of symptoms (average ± standard deviation, 5 pots)","[10]; 1000 g/ha (2.5 mg/ml, 400 L/ha), 1 DAT, scale 0-100",0 ± 0
same,"Score by visual inspection of symptoms (average ± standard deviation, 5 pots)","[10]; 1000 g/ha (2.5 mg/ml, 400 L/ha), 3 DAT",30 ± 0
same,"Score by visual inspection of symptoms (average ± standard deviation, 5 pots)","[10]; 1000 g/ha (2.5 mg/ml, 400 L/ha), 6 DAT",20 ± 0
same,"Score by visual inspection of symptoms (average ± standard deviation, 5 pots)","[10]; 1000 g/ha (2.5 mg/ml, 400 L/ha), 8 DAT",22 ± 4.5
same,"Score by visual inspection of symptoms (average ± standard deviation, 5 pots)","[10]; 1000 g/ha (2.5 mg/ml, 400 L/ha), 15 DAT",10 ± 0
same,"Score by visual inspection of symptoms (average ± standard deviation, 5 pots)","[10]; 1500 g/ha (3.75 mg/ml, 400 L/ha), 1 DAT",0 ± 0
same,"Score by visual inspection of symptoms (average ± standard deviation, 5 pots)","[10]; 1500 g/ha (3.75 mg/ml, 400 L/ha), 3 DAT",30 ± 0
same,"Score by visual inspection of symptoms (average ± standard deviation, 5 pots)","[10]; 1500 g/ha (3.75 mg/ml, 400 L/ha), 6 DAT",30 ± 0
same,"Score by visual inspection of symptoms (average ± standard deviation, 5 pots)","[10]; 1500 g/ha (3.75 mg/ml, 400 L/ha), 8 DAT",28 ± 4.5
same,"Score by visual inspection of symptoms (average ± standard deviation, 5 pots)","[10]; 1500 g/ha (3.75 mg/ml, 400 L/ha), 15 DAT",20 ± 0
